Source: ChEMBL document CHEMBL1201862, “PubChem BioAssay data set” (2004)
Calls of active or inactive are those of the source.

Columns and labels:
Estrogen receptor beta = Estrogen receptor beta (Homo sapiens, UniProt Q92731); test: blockers of SRC-3 recruitment to ERβ – biochemical, ELISA, streptavidin-HRP readout, orthogonal assay, confirmation (AID 1060)
Genome polyprotein = Genome polyprotein (dengue virus type 2, UniProt P29990); test: flavivirus cap methylation enzyme inhibition – biochemical, confirmation dose response, primary screen (AID 588689); assay type: functional
Bcl-2-like protein 10 = target: T1, Bcl-2-like protein 10 (Homo sapiens, UniProt Q9HD36); test: Bcl-B/TR3 peptide binding disruption – biochemical, fluorescence polarization, FITC-TR3 peptide, selectivity assay for Bfl-1 inhibitor project, primary screen (AID 748);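 further: fluorescence polarization from a fluorescein-labelled TR3 peptide binding purified Bcl-B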
T1 sequence (Q9HD36 whole entry): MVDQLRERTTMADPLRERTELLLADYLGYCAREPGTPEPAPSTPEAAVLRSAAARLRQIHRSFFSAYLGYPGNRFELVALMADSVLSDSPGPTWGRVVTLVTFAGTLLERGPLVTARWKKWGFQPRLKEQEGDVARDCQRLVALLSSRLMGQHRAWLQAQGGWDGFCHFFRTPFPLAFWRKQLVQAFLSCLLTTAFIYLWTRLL

NS3 = NS3 (Hepatitis C virus, UniProt A3EZJ3); test: PubChem AID 2173; set-up: species or system Hepacivirus hominis
Estrogen receptor = target: T2, Estrogen receptor (Homo sapiens, UniProt P03372);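 further: potency for inhibiting coactivator peptide recruitment to the receptor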
T2 sequence (P03372 whole entry): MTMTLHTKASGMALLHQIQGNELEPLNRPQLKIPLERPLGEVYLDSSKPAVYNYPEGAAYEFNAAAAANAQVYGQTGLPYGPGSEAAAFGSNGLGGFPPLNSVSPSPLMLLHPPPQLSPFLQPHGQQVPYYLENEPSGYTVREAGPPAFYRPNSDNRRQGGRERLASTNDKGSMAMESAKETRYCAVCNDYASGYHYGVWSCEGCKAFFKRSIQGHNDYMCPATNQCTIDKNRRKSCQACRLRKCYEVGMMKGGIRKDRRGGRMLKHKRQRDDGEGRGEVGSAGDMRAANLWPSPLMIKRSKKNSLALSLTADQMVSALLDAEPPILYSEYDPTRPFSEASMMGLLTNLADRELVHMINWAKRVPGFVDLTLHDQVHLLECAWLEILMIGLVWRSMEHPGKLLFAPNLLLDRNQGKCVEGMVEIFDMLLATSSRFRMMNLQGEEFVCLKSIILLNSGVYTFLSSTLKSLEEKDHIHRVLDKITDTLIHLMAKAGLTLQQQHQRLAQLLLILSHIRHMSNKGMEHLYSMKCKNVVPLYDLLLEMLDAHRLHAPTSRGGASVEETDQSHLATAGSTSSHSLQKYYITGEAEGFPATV

[1] = target: T3, Scavenger receptor class B member 1 (Mus musculus, UniProt Q61009); test: mouse SR-BI DiI-HDL uptake blockers – ldlA[mSR-BI] cells, fluorescence, cherry pick, dose response (AID 493194); assay type: functional, cell-based;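 further: cellular uptake of fluorescent DiI-labeled HDL measured as cell fluorescence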
T3 sequence (Q61009 whole entry): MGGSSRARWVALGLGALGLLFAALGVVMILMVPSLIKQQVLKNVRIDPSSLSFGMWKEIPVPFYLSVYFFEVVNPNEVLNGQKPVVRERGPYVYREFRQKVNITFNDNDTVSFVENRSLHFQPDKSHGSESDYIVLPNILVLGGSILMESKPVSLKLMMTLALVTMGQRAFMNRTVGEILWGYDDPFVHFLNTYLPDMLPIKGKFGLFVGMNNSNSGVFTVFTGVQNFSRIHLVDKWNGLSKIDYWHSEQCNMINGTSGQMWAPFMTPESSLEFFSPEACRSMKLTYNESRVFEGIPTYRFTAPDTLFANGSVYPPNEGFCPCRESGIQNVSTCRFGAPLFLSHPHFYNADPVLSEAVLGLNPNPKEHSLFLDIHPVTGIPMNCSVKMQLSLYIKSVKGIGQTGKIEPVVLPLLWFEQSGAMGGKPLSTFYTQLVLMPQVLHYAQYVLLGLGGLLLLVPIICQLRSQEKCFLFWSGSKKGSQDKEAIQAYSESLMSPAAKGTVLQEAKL

Kallikrein-7 = Kallikrein-7 (Homo sapiens, UniProt P49862); test: Fluorescence Intensity-based biochemical primary high throughput dose response assay to identify activators of kallikrein-7 (K7) zymogen.
[2] = target: 72 kDa type IV collagenase (Homo sapiens, UniProt P08253); test: Dose Response validation of uHTS RPN11 inhibitor hits using a MMP-2 Fluorescence assay.; assay type: functional
[3] = target: 26S proteasome non-ATPase regulatory subunit 14 (Homo sapiens, UniProt O00487); test: inhibition of proteasome subunit RPN11 – biochemical, fluorescence polarization, uHTS hits, confirmation (AID 602368); assay type: functional
Troponin, cardiac muscle = Troponin, cardiac muscle (Homo sapiens, UniProt P19429+P45379+P63316); test: compounds desensitizing RTF to calcium – biochemical, fluorescence, cardiac regulated thin filaments, triplicate IC50, dose response (AID 504742); assay type: protein-complex assay
Large T antigen = Large T antigen (Simian virus 40, UniProt P03070); assay type: functional, Betapolyomavirus macacae;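 further: Confirmatory-stage PubChem screen for compounds that inhibit SV40 T antigen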
ORF 73 = target: T4, ORF 73 (Human herpesvirus 8, UniProt O40947); test: KSHV LANA DNA-binding disruption – biochemical, fluorescence polarization, cherry-picked samples, dose response (AID 504725); set-up: species or system Human gammaherpesvirus 8;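 further: fluorescence polarization of a labeled DNA duplex reporting LANA DNA binding; potency is for inhibitors that block LANA binding to the DNA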
T4 sequence (O40947 whole entry): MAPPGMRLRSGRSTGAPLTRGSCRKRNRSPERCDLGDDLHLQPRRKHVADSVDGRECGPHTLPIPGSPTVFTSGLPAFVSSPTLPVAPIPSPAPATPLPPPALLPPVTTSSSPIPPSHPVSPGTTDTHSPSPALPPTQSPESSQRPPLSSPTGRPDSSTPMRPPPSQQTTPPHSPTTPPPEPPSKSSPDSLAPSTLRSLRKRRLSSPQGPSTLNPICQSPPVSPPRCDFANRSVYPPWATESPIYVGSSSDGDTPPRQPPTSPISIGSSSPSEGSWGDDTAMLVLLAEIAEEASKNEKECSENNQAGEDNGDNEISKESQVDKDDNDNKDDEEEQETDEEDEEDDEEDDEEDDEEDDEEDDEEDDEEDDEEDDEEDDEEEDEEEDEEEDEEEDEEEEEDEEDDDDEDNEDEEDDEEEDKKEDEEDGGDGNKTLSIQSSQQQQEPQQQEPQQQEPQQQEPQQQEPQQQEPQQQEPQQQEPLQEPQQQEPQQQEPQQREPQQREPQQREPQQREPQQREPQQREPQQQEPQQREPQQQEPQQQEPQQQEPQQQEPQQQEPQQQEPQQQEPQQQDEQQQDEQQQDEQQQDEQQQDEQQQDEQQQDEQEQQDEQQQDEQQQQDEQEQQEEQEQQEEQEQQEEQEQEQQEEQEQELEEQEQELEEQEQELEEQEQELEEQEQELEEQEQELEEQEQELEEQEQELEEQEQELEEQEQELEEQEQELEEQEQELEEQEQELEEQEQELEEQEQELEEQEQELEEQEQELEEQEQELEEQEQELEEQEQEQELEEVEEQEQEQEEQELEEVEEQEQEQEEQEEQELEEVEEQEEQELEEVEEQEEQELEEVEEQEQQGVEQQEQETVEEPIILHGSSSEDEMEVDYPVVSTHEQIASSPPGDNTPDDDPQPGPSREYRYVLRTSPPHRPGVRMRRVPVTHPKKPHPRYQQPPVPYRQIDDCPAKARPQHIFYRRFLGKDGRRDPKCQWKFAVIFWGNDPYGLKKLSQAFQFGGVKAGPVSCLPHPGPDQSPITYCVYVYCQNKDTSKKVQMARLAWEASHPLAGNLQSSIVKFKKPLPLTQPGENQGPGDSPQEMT

Prothrombin = Prothrombin (Bos taurus, UniProt P00735); test: thrombin protease inhibitors – biochemical, fluorescence polarization, uHTS hits, dose response (AID 602369); assay type: functional
[4] = target: Voltage-gated N-type calcium channel alpha-1B subunit/Amyloid beta A4 precursor protein-binding family A member 1 (Homo sapiens, UniProt Q00975+Q02410); test: disruptors of Mint-PDZ/N-type channel peptide interaction – biochemical, HTRF, SAR follow-up (AID 2489); assay type: functional
[5] = Vero E6 cell cytotoxicity, dose response, cytotoxicity control for non-replicating M. tuberculosis project, secondary assay (AID 492998); assay type: functional, VeroE6; conditions: Vero C1008
cells = assay type: functional
[6] = THP-1 cell cytotoxicity, dose response, cytotoxicity control for non-replicating M. tuberculosis project (AID 489025); assay type: functional
INS1 = test: INS-1E survival protection against cytokine death – cell-based, luminescence, retest, dose response (AID 449756); assay type: functional; conditions: Rattus norvegicus;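 further: cell death triggered by IL-1 beta plus TNF-alpha plus IFN-gamma mixture; protective hits raise ATP signal compared with cytokine alone wells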
[7] = HepG2 cell cytotoxicity, dose response, cytotoxicity control for non-replicating M. tuberculosis project (AID 489018); assay type: functional; conditions: Mycobacterium tuberculosis
[8] = blockers of bursicon-stimulated LGR2 cAMP reporter – cell-based, HEK293, CRE-luciferase reporter, cherry pick, set 2, dose response (AID 743343); assay type: functional;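 further: transfected cells were stimulated with diluted bursicon conditioned medium after compound addition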
[9] = A549 cell cytotoxicity, dose response, cytotoxicity control, plate reader, cherry-pick, antagonist series (AID 743412); assay type: functional, cell-based
[10] = toxicity toward HepG2 liver cells – cell-based, plate reader, cherry-pick, antagonist series, cytotoxicity control, dose response (AID 743416); assay type: functional
[11] = target: Induced myeloid leukemia cell differentiation protein Mcl-1 (Homo sapiens, UniProt Q07820); assay type: functional
[12] = blockade of melanocortin 4 receptor signaling – cell-based, plate reader, cherry pick, counter-screen for LGR2 antagonist project, dose response (AID 743444); assay type: functional;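 further: transfected HEK 293 cells stimulated with alpha-MSH peptide; potency of inhibitors of the alpha-MSH evoked signal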
Paired box protein Pax-8 = Paired box protein Pax-8 (Homo sapiens, UniProt Q06710); test: PAX8 transcriptional activity inhibition in RMG-I – RMG-I cells, luciferase, cherry-pick, dose response (AID 687027); assay type: functional, cell-based;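 further: luciferase reporter driven by Pax8 target thyroperoxidase promoter measured by SteadyGlo luminescence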
[13] = viability loss in HEK293 cells – cell-based, plate reader, cherry-picked samples, cytotoxicity control, dose response (AID 743446); assay type: functional

Chain of NS3 (A3EZJ3 whole entry): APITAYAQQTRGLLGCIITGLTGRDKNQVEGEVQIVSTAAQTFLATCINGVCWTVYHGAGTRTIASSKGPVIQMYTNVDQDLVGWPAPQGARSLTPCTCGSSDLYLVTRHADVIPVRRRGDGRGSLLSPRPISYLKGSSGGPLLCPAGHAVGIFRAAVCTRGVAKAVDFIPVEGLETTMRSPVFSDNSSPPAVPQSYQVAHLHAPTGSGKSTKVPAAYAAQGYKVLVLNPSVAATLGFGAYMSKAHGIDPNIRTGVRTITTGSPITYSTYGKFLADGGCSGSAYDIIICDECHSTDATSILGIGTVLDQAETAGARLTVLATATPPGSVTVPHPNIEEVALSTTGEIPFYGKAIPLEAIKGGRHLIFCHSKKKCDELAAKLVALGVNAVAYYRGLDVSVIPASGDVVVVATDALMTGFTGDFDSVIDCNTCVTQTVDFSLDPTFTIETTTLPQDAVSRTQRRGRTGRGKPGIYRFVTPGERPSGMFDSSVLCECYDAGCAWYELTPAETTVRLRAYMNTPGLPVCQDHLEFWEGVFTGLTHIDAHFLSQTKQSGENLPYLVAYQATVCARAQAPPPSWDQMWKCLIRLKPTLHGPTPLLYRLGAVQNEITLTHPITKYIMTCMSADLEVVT
Chain of 26S proteasome non-ATPase regulatory subunit 14 (O00487 whole entry): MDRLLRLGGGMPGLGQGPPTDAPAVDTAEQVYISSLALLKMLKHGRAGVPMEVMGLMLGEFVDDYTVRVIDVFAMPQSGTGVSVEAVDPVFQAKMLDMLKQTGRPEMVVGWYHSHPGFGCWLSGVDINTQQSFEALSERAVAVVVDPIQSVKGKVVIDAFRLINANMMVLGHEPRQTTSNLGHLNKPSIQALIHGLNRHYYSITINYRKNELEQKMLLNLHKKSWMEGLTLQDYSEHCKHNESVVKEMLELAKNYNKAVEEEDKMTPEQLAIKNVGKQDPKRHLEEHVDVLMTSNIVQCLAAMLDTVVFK
Chain of Genome polyprotein (P29990 2492-3391 limits assumed): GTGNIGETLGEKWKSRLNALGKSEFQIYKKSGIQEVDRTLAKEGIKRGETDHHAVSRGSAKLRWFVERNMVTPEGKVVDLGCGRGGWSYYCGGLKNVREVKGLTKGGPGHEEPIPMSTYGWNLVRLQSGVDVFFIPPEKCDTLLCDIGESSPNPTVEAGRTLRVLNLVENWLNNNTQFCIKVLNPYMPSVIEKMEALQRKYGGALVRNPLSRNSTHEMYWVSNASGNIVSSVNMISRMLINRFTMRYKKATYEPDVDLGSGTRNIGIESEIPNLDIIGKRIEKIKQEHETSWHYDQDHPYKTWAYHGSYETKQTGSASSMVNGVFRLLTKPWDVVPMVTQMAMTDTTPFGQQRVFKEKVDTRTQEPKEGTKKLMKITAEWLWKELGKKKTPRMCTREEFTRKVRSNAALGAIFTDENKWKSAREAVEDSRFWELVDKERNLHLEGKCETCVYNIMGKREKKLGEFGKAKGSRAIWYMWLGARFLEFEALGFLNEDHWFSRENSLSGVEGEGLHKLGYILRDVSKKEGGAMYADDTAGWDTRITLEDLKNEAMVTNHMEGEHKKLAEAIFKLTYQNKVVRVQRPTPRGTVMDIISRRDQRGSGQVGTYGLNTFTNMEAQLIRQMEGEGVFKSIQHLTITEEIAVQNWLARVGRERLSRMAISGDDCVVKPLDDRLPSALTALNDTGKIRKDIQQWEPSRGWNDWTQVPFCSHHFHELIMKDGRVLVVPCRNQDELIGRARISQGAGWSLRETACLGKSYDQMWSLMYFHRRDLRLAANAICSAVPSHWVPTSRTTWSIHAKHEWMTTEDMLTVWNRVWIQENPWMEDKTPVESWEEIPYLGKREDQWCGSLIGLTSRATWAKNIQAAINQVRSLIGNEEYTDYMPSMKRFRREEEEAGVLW
Chain of Estrogen receptor beta (Q92731 whole entry): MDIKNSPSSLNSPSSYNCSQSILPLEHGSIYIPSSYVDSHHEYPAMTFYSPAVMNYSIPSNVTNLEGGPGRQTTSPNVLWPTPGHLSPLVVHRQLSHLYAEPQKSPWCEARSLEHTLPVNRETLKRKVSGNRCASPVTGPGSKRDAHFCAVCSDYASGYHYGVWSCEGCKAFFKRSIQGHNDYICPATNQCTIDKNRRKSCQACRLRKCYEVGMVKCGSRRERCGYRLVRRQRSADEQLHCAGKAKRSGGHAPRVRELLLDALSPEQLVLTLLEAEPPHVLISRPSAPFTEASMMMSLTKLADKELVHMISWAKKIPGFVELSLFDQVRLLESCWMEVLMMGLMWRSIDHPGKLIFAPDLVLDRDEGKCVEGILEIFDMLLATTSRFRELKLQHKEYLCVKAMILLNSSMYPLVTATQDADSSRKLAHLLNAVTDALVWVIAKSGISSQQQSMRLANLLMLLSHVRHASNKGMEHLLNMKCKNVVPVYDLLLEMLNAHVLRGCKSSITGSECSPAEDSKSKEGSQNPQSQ
Chain of 72 kDa type IV collagenase (P08253 whole entry): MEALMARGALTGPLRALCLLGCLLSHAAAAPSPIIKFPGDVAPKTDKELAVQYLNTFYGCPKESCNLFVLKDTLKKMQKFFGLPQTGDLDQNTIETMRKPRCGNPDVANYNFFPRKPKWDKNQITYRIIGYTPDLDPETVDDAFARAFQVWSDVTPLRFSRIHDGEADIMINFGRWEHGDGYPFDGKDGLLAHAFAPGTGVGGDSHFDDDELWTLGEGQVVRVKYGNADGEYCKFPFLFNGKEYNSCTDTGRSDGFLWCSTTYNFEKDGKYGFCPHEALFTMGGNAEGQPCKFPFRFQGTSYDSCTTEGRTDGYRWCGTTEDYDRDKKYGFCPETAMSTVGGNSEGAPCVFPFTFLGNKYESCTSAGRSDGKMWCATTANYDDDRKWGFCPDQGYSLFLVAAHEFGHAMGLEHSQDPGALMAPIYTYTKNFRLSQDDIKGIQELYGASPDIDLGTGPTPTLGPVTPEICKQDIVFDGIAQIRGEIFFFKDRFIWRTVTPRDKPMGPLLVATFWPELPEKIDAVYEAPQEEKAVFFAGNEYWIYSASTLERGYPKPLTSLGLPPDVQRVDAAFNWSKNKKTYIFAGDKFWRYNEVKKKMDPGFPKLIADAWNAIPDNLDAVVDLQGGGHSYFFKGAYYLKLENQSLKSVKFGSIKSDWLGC
Chain of Kallikrein-7 (P49862 whole entry): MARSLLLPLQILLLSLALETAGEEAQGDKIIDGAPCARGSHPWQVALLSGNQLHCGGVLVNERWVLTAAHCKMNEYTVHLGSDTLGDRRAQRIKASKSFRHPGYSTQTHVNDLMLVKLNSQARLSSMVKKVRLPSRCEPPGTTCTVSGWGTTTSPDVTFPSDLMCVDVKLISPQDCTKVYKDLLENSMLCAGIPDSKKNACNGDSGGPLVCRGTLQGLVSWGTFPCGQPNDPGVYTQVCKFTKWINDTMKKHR
Chain of Paired box protein Pax-8 (Q06710 whole entry): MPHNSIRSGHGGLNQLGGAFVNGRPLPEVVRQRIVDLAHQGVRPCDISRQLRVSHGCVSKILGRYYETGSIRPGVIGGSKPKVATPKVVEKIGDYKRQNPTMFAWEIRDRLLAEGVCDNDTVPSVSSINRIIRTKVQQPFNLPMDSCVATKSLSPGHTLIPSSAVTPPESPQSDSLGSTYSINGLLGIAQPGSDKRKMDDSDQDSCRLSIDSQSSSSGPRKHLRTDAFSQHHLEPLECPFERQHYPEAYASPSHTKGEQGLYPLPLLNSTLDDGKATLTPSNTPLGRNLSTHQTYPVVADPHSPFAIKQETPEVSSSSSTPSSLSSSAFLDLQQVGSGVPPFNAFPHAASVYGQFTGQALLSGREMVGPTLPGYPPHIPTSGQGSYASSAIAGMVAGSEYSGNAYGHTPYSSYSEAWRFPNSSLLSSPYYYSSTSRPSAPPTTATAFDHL
Chain of Large T antigen (P03070 whole entry): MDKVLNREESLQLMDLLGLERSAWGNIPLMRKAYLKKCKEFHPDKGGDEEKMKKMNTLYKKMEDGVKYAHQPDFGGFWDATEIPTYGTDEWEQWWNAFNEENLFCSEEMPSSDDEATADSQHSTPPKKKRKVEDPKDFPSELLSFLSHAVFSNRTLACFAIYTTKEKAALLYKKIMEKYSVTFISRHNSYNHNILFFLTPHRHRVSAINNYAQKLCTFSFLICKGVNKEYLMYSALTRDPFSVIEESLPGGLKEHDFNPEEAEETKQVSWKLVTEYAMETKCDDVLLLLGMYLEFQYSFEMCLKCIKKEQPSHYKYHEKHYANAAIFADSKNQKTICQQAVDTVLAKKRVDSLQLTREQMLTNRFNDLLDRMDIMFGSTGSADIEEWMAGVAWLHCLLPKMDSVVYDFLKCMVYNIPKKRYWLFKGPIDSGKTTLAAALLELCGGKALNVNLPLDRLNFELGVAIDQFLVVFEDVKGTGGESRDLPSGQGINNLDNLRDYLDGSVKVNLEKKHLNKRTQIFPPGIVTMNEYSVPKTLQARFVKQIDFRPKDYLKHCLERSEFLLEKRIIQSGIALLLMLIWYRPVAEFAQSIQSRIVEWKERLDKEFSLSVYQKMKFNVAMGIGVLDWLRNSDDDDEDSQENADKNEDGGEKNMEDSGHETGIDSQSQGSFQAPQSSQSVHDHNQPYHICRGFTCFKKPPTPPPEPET
Chain of Induced myeloid leukemia cell differentiation protein Mcl-1 (Q07820 whole entry): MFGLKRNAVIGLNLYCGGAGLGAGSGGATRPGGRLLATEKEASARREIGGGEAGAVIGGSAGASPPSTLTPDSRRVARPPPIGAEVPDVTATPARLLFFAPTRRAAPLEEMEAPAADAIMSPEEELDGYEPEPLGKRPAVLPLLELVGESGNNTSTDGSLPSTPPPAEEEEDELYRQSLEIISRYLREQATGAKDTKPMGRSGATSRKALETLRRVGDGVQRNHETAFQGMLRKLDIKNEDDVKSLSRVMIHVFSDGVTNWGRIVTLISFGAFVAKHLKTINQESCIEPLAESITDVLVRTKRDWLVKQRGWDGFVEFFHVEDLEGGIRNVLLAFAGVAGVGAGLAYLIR

Cc1ccccc1NC(=O)CSc1nnc(-c2ccco2)c(-c2ccco2)n1
active: IC50 (Genome polyprotein) 64.7 µM | IC50 (Bcl-2-like protein 10) 27.3 µM | IC50 (NS3) 8.62 µM | IC50 (Estrogen receptor) 14.9 µM
1.98 µM (not active): IC50 (Estrogen receptor beta)

CCC(=O)N1CCc2cc(-c3csc(NC(=O)c4ccco4)n3)ccc21
active: AC50 [1] 0.109 µM
inactive: EC50 (Kallikrein-7) 10.5 µM

O=C(O)C(Cc1ccccc1)N1C(=O)/C(=C/C=C/c2ccco2)SC1=S (configuration not stated)
inactive: IC50 (Troponin, cardiac muscle) > 71.5 µM
active: IC50 [2] 0.947 µM | IC50 [3] 7.33 µM | IC50 (Large T antigen) 33.5 µM | AC50 (ORF 73) 108 µM | IC50 (Prothrombin) 75.3 µM

CC(/C=C/c1ccco1)=NNC(=O)c1cc(C)[nH]n1
inactive: IC50 [4] > 56.8 µM

Cc1cc(N2CCC(C)CC2)nc(NCc2ccccc2)n1
active: CC50 [5] > 20 µM | IC50 (cells) 45.4 µM | CC50 [6] 13.4 µM | AC50 (INS1) 5.93 µM | CC50 [7] > 20 µM

C/C(N)=C(/C#N)C(=O)CSc1nc2ccccc2[nH]1
active: IC50 (Bcl-2-like protein 10) 22.3 µM

O=C(Nc1cccc(Cl)c1)Nc1nnc(-c2ccncc2)s1
active: AC50 [8] 3.28 µM | CC50 [5] > 20 µM | IC50 (cells) > 50 µM | AC50 [9] 17.3 µM | CC50 [6] 6.34 µM | AC50 [10] 8.34 µM | AC50 (INS1) 4.54 µM | IC50 [11] 3.12 µM | AC50 [12] 6.08 µM | AC50 (Paired box protein Pax-8) 2.97 µM | CC50 [7] 9.96 µM | AC50 [13] 15.5 µM
